Results reported in patent US11230543B2, “Biaryl monobactam compounds and methods of use thereof for the treatment of bacterial infections” (priority 2015, dated 2022).
Counter-ions that a name gives are not always drawn.

How the values were obtained:
[1] = system: Klebsiella pneumoniae expressing KPC-1 (CL6569); test: Antibiotic activity: growth inhibitory concentration (OD600), Klebsiella pneumoniae CL6569; assay type: cell-based; conditions: lowest concentration inhibiting 95% of bacterial growth; in the presence of β lactamase inhibitor Relebactam 4 μg/mL; 35±2° C. for 22 hours; tested range 100 μM to 0.098 μM
Procedure, shortened: (§1)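 Clinical strains at ~2×10^5 CFU/mL in cation-adjusted Mueller-Hinton II broth, with relebactam at 4 μg/mL final; compounds 100 μM to 0.098 μM final. After 22 hours at 35±2° C, OD600 read; MITC95 is lowest concentration giving 95% growth inhibition.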

[2] = system: Pseudomonas aeruginosa expressing AmpC (CL5701); test: Antibiotic activity: growth inhibitory concentration (OD600), Pseudomonas aeruginosa CL5701; assay type: cell-based; conditions: lowest concentration inhibiting 95% of bacterial growth; in the presence of β lactamase inhibitor Relebactam 4 μg/mL; 35±2° C. for 22 hours; tested range 100 μM to 0.098 μM
Procedure, shortened: as §1

| Compound | KP_CL6569 MITC95 [1] | PA_CL5701 MITC95 [2] |
| --- | --- | --- |
| C[n+]1cc(-c2ccc(OC[C@H](O/N=C(\C(=O)N[C@@H]3C(=O)N(OS(=O)(=O)[O-])C3(C)C)c3csc(N)n3)C(=O)O)cc2)cn1CCCN [Example 1, (S)-3-((Z)-2-(2-aminothiazol-4-yl)-2-(((S)-2-(4-(1-(3-ammoniopropyl)-2-methyl-1H-pyrazol-2-ium-4-yl)phenoxy)-1-carboxyethoxy)imino)acetamido)-2,2-dimethyl-4-oxoazetidin-1-yl sulfate 2,2,2-trifluoroacetate] | 0.3906 µM | 3.125 µM |
| CC1(C)[C@H](NC(=O)/C(=N\O[C@@H](COc2cnc(-n3cc[n+](CCCN)c3)nc2)C(=O)O)c2csc(N)n2)C(=O)N1OS(=O)(=O)[O-] [Example 111, (S)-3-((Z)-2-(((S)-2-((2-(3-(3-aminopropyl)-1H-imidazol-3-ium-1-yl)pyrimidin-5-yl)oxy)-1-carboxyethoxy)imino)-2-(2-aminothiazol-4-yl)acetamido)-2,2-dimethyl-4-oxoazetidin-1-yl sulfate] | 1.563 µM | 50 µM |
| Cn1c(-c2ccc(OC[C@H](O/N=C(\C(=O)N[C@@H]3C(=O)N(OS(=O)(=O)O)C3(C)C)c3csc(N)n3)C(=O)O)cc2)cn(CC(O)CN)c1=N (single isomer, unassigned) [Example 56] | 0.3906 µM | 3.125 µM |
| CC1(C)[C@H](NC(=O)/C(=N\O[C@@H](COc2ccc(-n3cc[n+](CC4CNC4)c3)nc2)C(=O)O)c2csc(N)n2)C(=O)N1OS(=O)(=O)[O-] [Example 109, (S)-3-((Z)-2-(2-aminothiazol-4-yl)-2-(((S)-2-((6-(3-(azetidin-3-ylmethyl)-1H-imidazol-3-ium-1-yl)pyridin-3-yl)oxy)-1-carboxyethoxy)imino)acetamido)-2,2-dimethyl-4-oxoazetidin-1-yl sulfate] | 0.7813 µM | 12.5 µM |
| CC1(C)[C@H](NC(=O)/C(=N\O[C@@H](COc2ccc(-n3cc[n+](CCCN)c3)nc2)C(=O)O)c2csc(N)n2)C(=O)N1OS(=O)(=O)[O-] [Example 36, (S)-3-((Z)-2-(((S)-2-((6-(3-(3-aminopropyl)-1H-imidazol-3-ium-1-yl)pyridin-3-yl)oxy)-1-carboxyethoxy)imino)-2-(2-aminothiazol-4-yl)acetamido)-2,2-dimethyl-4-oxoazetidin-1-yl sulfate compound with 2,2,2-trifluoroacetic acid (1:1)] | 0.7813 µM | 6.25 µM |
| C[n+]1cn(CCCN)cc1-c1ccc(OC[C@H](O/N=C(\C(=O)NC2C(=O)N(OS(=O)(=O)[O-])C2(C)C)c2csc(N)n2)C(=O)O)cc1 (stereo partly drawn) [Example 2, (S)-3-((Z)-2-(2-aminothiazol-4-yl)-2-(((S)-2-(4-(1-(3-ammoniopropyl)-3-methyl-1H-imidazol-3-ium-4-yl)phenoxy)-1-carboxyethoxy)imino)acetamido)-2,2-dimethyl-4-oxoazetidin-1-yl-sulfate] | 0.3906 µM | 3.125 µM |
| C[n+]1cc(-c2ccc(OC[C@H](O/N=C(\C(=O)N[C@@H]3C(=O)N(OS(=O)(=O)[O-])C3(C)C)c3csc(N)n3)C(=O)O)cc2)cn1CC1CNC1 [Example 16, (S)-3-((Z)-2-(2-aminothiazol-4-yl)-2-(((S)-2-(4-(1-(azetidin-3-ylmethyl)-2-methyl-1H-pyrazol-2-ium-4-yl)phenoxy)-1-carboxy-ethoxy)imino)acetamido)-2,2-dimethyl-4-oxoazetidin-1-yl sulfate] | 0.3906 µM | 3.125 µM |
| C[C@@H](COc1ccc(-c2ccc(NCCN)[n+](C)c2)cc1)O/N=C(\C(=O)N[C@@H]1C(=O)N(OS(=O)(=O)O)C1(C)C)c1csc(N)n1 [Example 90, (S)-3-((Z)-2-((((S)-1-(4-(6-((2-aminoethyl)amino)-1-methylpyridin-1-ium-3-yl)phenoxy)propan-2-yl)oxy)imino)-2-(2-aminothiazol-4-yl)acetamido)-2,2-dimethyl-4-oxoazetidin-1-yl sulfate] | 1.563 µM | 25 µM |
| C[n+]1cc(-c2ccc(OC[C@H](O/N=C(\C(=O)N[C@@H]3C(=O)N(OS(=O)(=O)O)C3(C)C)c3csc(N)n3)C(=O)O)cc2)cn1CCCNCC1CNC1 [Example 103, (S)-3-((E)-2-(2-aminothiazol-4-yl)-2-(((S)-2-(4-(1-(3-((azetidin-3-ylmethyl)amino)-propyl)-2-methyl-1H-pyrazol-2-ium-4-yl)phenoxy)-1-carboxyethoxy)imino)acetamido)-2,2-dimethyl-4-oxoazetidin-1-yl sulfate, 3TFA] | 0.09766 µM | 3.125 µM |
| CC1(C)[C@H](NC(=O)/C(=N\O[C@@](C)(COc2ccc(-n3cc[n+](CCCN)c3)nc2)C(=O)O)c2csc(N)n2)C(=O)N1OS(=O)(=O)[O-] [Example 113, (S)-3-((Z)-2-((((S)-1-((6-(3-(3-aminopropyl)-1H-imidazol-3-ium-1-yl)pyridin-3-yloxy)-2-carboxypropan-2-yl)oxy)imino)-2-(2-aminothiazol-4-yl)acetamido)-2,2-dimethyl-4-oxoazetidin-1-yl sulfate] | 0.7813 µM | 12.5 µM |
| CC1(C)[C@H](NC(=O)/C(=N\O[C@@](C)(COc2ccc(C3CN=C(NCCN)NC3)cc2)C(=O)O)c2csc(N)n2)C(=O)N1OS(=O)(=O)O (stereo partly drawn) [Example 95, (2S)-3-(4-(2-((2-aminoethyl)amino)-1,4,5,6-tetrahydropyrimidin-5-yl)phenoxy)-2-((((Z)-1-(2-aminothiazol-4-yl)-2-(((S)-2,2-dimethyl-4-oxo-1-(sulfooxy)azetidin-3-yl)amino)-2-oxoethylidene)amino)oxy)-2-methylpropanoic acid] | 0.3906 µM | 3.125 µM |
| C[n+]1cc(-c2ccc(OC[C@H](O/N=C(\C(=O)N[C@@H]3C(=O)N(OS(=O)(=O)O)C3(C)C)c3csc(N)n3)C(=O)O)cc2F)cn1CCCN [Example 24, (S)-3-((Z)-2-(((S)-2-(4-(1-(3-aminopropyl)-2-methyl-1H-pyrazol-2-ium-4-yl)-3-fluorophenoxy)-1-carboxyethoxy)imino)-2-(2-aminothiazol-4-yl)acetamido)-2,2-dimethyl-4-oxoazetidin-1-yl sulfate] | 0.3906 µM | 3.125 µM |
| CC1(C)[C@H](NC(=O)/C(=N\O[C@@H](COc2ccc(-c3cn(CCCN)[n+](CC4(F)CNC4)c3)cc2)C(=O)O)c2csc(N)n2)C(=O)N1OS(=O)(=O)[O-] [Example 119, (S)-3-((Z)-2-(((S)-2-(4-(1-(3-aminopropyl)-2-((3-fluoroazetidin-3-yl)methyl)-1H-pyrazol-2-ium-4-yl)phenoxy)-1-carboxyethoxy)imino)-2-(2-aminothiazol-4-yl)acetamido)-2,2-dimethyl-4-oxoazetidin-1-yl sulfate] | 0.3906 µM | 6.25 µM |
| CC1(C)[C@H](NC(=O)/C(=N\O[C@@H](COc2ccc(-c3cc(CN)n(CCCN)n3)cc2)C(=O)O)c2csc(N)n2)C(=O)N1OS(=O)(=O)O [Example 126, (S)-3-(4-(5-(Aminomethyl)-1-(3-aminopropyl)-1H-pyrazol-3-yl)phenoxy)-2-((((Z)-1-(2-aminothiazol-4-yl)-2-(((S)-2,2-dimethyl-4-oxo-1-(sulfooxy)azetidin-3-yl)amino)-2-oxoethylidene)amino)oxy)propanoic acid] | 0.39 µM | 3.125 µM |
| C[n+]1cc(-c2ccc(OC[C@H](O/N=C(\C(=O)N[C@@H]3C(=O)N(OS(=O)(=O)O)C3(C)C)c3csc(N)n3)C(=O)O)cc2F)cn1CC(N)CN (single isomer, unassigned) [Example 45] | 0.3906 µM | 6.25 µM |
| Cc1c(-c2ccc(OC[C@H](O/N=C(\C(=O)N[C@@H]3C(=O)N(OS(=O)(=O)O)C3(C)C)c3csc(N)n3)C(=O)O)cc2)c(C)[n+](C)n1CCCN.O=C([O-])C(F)(F)F [Example 20, 1-(3-aminopropyl)-4-(4-((S)-2-((((Z)-1-(2-aminothiazol-4-yl)-2-(((S)-2,2-dimethyl-4-oxo-1-(sulfooxy)azetidin-3-yl)amino)-2-oxo-ethylidene)amino)oxy)-2-carboxyethoxy)phenyl)-2,3,5-trimethyl-1H-pyrazol-2-ium 2,2,2-trifluoroacetate] | 0.3906 µM | 6.25 µM |
| CC1(C)[C@H](NC(=O)/C(=N\OCCOc2ccc(-n3cc[n+](CCCN)c3)nc2)c2csc(N)n2)C(=O)N1OS(=O)(=O)[O-] [Example 35, (S,Z)-3-(2-((2-((6-(3-(3-aminopropyl)-1H-imidazol-3-ium-1-yl)pyridin-3-yl)oxy)ethoxy)imino)-2-(2-aminothiazol-4-yl)acetamido)-2,2-dimethyl-4-oxoazetidin-1-yl sulfate 2,2,2-trifluoroacetate] | 1.281 µM | 50 µM |
| C[n+]1cc(-c2ccc(OC[C@H](O/N=C(\C(=O)N[C@@H]3C(=O)N(OS(=O)(=O)[O-])C3(C)C)c3csc(N)n3)C(=O)O)cc2)cnc1NCCN [Example 77, (S)-3-((Z)-2-(((S)-2-(4-(2-((2-aminoethyl)amino)-1-methylpyrimidin-1-ium-5-yl)phenoxy)-1-carboxyethoxy)imino)-2-(2-aminothiazol-4-yl)acetamido)-2,2-dimethyl-4-oxoazetidin-1-yl sulfate] | 0.3906 µM | 3.125 µM |
| C[n+]1cc(-c2ccc(OCCO/N=C(\C(=O)N[C@@H]3C(=O)N(OS(=O)(=O)O)C3(C)C)c3csc(N)n3)cc2)cn1CCCN [Example 4, (S,Z)-3-(2-((2-(4-(1-(3-aminopropyl)-2-methyl-1H-pyrazol-2-ium-4-yl)phenoxy)ethoxy)imino)-2-(2-aminothiazol-4-yl)acetamido)-2,2-dimethyl-4-oxoazetidin-1-yl sulfate] | 1.281 µM | 25 µM |
